Measured values reported in patent US20240252506A1 (Hoffmann-La Roche Inc., priority 2021, published 2024).
Converted amounts (≈) assume the structure as drawn. Structures can show the parent of a compound that is named as a salt.

Tested on: Escherichia coli ATCC 25922
Experiment: Minimal Inhibitory Concentration (MIC) determination, broth microdilution (CLSI M07-A10)
Assay type: cell-based
Settings: Escherichia coli, ATCC25922, strain Escherichia coli ATCC 25922, 18-24 hours at 35±2° C., lowest concentration for complete growth inhibition (no visible growth), read-out: Escherichia coli growth inhibition MIC
In short: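 MIC read visually as the lowest concentration with complete growth inhibition after 18-24 h at 35±2° C, ambient air. Method follows CLSI M07-A10 broth microdilution, two-fold compound series, inoculum standardized to 0.5 McFarland then diluted 1:200.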

Row | SMILES | MIC
1 | O=C(O)C(F)(F)F.O=C1COc2ncc(N3CC4(CCN(CC5Cc6c(c(F)c7[nH]c([C@@H]8C[C@@H](O)CN8)nc7c6F)C5)CC4)OC3=O)nc2N1 [Example 46, 6-[8-[[4,8-Difluoro-2-[(2S,4R)-4-hydroxypyrrolidin-2-yl]-3,5,6,7-tetrahydrocyclopenta[f]benzimidazol-6-yl]methyl]-2-oxo-1-oxa-3,8-diazaspiro[4.5]decan-3-yl]-4H-pyrazino[2,3-b][1,4]oxazin-3-one;2,2,2-trifluoroacetic acid] | 0.25 µg/mL
2 | CNCCc1nc2c(F)c3c(c(F)c2[nH]1)CC(CN1CCC2(CC1)CN(c1cnc4c(n1)NC(=O)CO4)C(=O)O2)C3.O=C(O)C(F)(F)F [Example 13, 6-[8-[[4,8-difluoro-2-[2-(methylamino)ethyl]-3,5,6,7-tetrahydrocyclopenta[f]benzimidazol-6-yl]methyl]-2-oxo-1-oxa-3,8-diazaspiro[4.5]decan-3-yl]-4H-pyrazino[2,3-b][1,4]oxazin-3-one; 2,2,2-trifluoroacetic acid] | 0.25 µg/mL
3 | CNCc1nc2cc3c(c(F)c2o1)CC(CN1CCC2(CC1)CN(c1cnc4c(n1)NC(=O)CO4)C(=O)O2)C3.O=C(O)C(F)(F)F (stereo not drawn) [Example 22, 6-[8-[[8-fluoro-2-(methylaminomethyl)-6,7-dihydro-5H-cyclopenta[f][1,3]benzoxazol-6-yl]methyl]-2-oxo-1-oxa-3,8-diazaspiro[4.5]decan-3-yl]-4H-pyrazino[2,3-b][1,4]oxazin-3-one; 2,2,2-trifluoroacetic acid] | 0.25 µg/mL
4 | CNCCn1nc2c(F)c3c(c(F)c2n1)CC(CN1CCC2(CC1)CN(c1cnc4c(n1)NC(=O)CO4)C(=O)O2)C3.O=CO [Example 117, 6-[8-[[4,8-difluoro-2-[2-(methylamino)ethyl]-6,7-dihydro-5H-cyclopenta[f]benzotriazol-6-yl]methyl]-2-oxo-1-oxa-3,8-diazaspiro[4.5]decan-3-yl]-4H-pyrazino[2,3-b][1,4]oxazin-3-one; formic acid] | 0.25 µg/mL
5 | NCCn1nc2cc(F)c3c(c2n1)CC(CN1CCC2(CC1)CN(c1cnc4c(n1)NC(=O)CO4)C(=O)O2)C3.O=C(O)C(F)(F)F (stereo not drawn) [Example 83, 6-[8-[[2-(2-aminoethyl)-5-fluoro-7,8-dihydro-6H-cyclopenta[e]benzotriazol-7-yl]methyl]-2-oxo-1-oxa-3,8-diazaspiro[4.5]decan-3-yl]-4H-pyrazino[2,3-b][1,4]oxazin-3-one; 2,2,2-trifluoroacetic acid] | ≤ 0.06 µg/mL
6 | Nc1nc2c(F)c3c(c(F)c2[nH]1)CC(CN1CCC2(CC1)CN(c1cnc4c(n1)NC(=O)CO4)C(=O)O2)C3 [Example 32, 6-[8-[(2-amino-4,8-difluoro-3,5,6,7-tetrahydrocyclopenta[f]benzimidazol-6-yl)methyl]-2-oxo-1-oxa-3,8-diazaspiro[4.5]decan-3-yl]-4H-pyrazino[2,3-b][1,4]oxazin-3-one] | 0.25 µg/mL (≈ 0.475 µM)
7 | C[C@@H](N)c1nc2c(F)c3c(c(F)c2n1C)CC(CN1CCC2(CC1)CN(c1cnc4c(n1)NC(=O)CO4)C(=O)O2)C3 (stereo partly drawn) [Example 68, 6-[8-[[2-[(1R)-1-aminoethyl]-4,8-difluoro-1-methyl-6,7-dihydro-5H-cyclopenta[f]benzimidazol-6-yl]methyl]-2-oxo-1-oxa-3,8-diazaspiro[4.5]decan-3-yl]-4H-pyrazino[2,3-b][1,4]oxazin-3-one] | 0.125 µg/mL (≈ 0.22 µM)

Continued, values first:

Row | MIC | SMILES
8 | 2 µg/mL | NCCn1c(=O)n(CCN)c2c(F)c3c(c(F)c21)CC(CN1CCC2(CC1)CN(c1cnc4c(n1)NC(=O)CO4)C(=O)O2)C3.O=C(O)C(F)(F)F [Example 43, 6-[8-[[1,3-bis(2-aminoethyl)-4,8-difluoro-2-oxo-6,7-dihydro-5H-cyclopenta[f]benzimidazol-6-yl]methyl]-2-oxo-1-oxa-3,8-diazaspiro[4.5]decan-3-yl]-4H-pyrazino[2,3-b][1,4]oxazin-3-one; 2,2,2-trifluoroacetic acid]
9 | 1 µg/mL (≈ 1.64 µM) | CN1CCOC(c2nc3c(F)c4c(c(F)c3[nH]2)CC(CN2CCC3(CC2)CN(c2cnc5c(n2)NC(=O)CO5)C(=O)O3)C4)C1 (stereo not drawn) [Example 6, 6-[8-[[4,8-difluoro-2-(4-methylmorpholin-2-yl)-3,5,6,7-tetrahydrocyclopenta[f]benzimidazol-6-yl]methyl]-2-oxo-1-oxa-3,8-diazaspiro[4.5]decan-3-yl]-4H-pyrazino[2,3-b][1,4]oxazin-3-one]
10 | 0.25 µg/mL | NC1(Cn2nc3c(F)c4c(c(F)c3n2)CC(CN2CCC3(CC2)CN(c2cnc5c(n2)NC(=O)CO5)C(=O)O3)C4)CC1.O=C(O)C(F)(F)F [Example 77, 6-[8-[[2-[(1-aminocyclopropyl)methyl]-4,8-difluoro-6,7-dihydro-5H-cyclopenta[f]benzotriazol-6-yl]methyl]-2-oxo-1-oxa-3,8-diazaspiro[4.5]decan-3-yl]-4H-pyrazino[2,3-b][1,4]oxazin-3-one; 2,2,2-trifluoroacetic acid]
11 | 0.125 µg/mL (≈ 0.233 µM) | CNCc1nc2cc3c(c(F)c2[nH]1)CC(CN1CCC2(CC1)CN(c1cnc4c(n1)NC(=O)CO4)C(=O)O2)C3 (single isomer, unassigned) [Example 59, 6-[8-[[8-Fluoro-2-(methylaminomethyl)-1,5,6,7-tetrahydrocyclopenta[f]benzimidazol-6-yl]methyl]-2-oxo-1-oxa-3,8-diazaspiro[4.5]decan-3-yl]-4H-pyrazino[2,3-b][1,4]oxazin-3-one]
12 | 0.5 µg/mL (≈ 0.928 µM) | Nc1cnc2c(F)c3c(c(F)c2n1)CC(CN1CCC2(CC1)CN(c1cnc4c(n1)NC(=O)CO4)C(=O)O2)C3 (stereo not drawn) [Example 39, 6-[8-[(3-amino-5,9-difluoro-7,8-dihydro-6H-cyclopenta[g]quinoxalin-7-yl)methyl]-2-oxo-1-oxa-3,8-diazaspiro[4.5]decan-3-yl]-4H-pyrazino[2,3-b][1,4]oxazin-3-one]
13 | 0.5 µg/mL (≈ 0.925 µM) | CNCc1nc2c(F)c3c(c(F)c2[nH]1)CC(CNC1CC2(C1)CN(c1cnc4c(n1)NC(=O)CO4)C(=O)O2)C3 (stereo not drawn) [Example 19, 6-[2-[[4,8-difluoro-2-(methylaminomethyl)-3,5,6,7-tetrahydrocyclopenta[f]benzimidazol-6-yl]methylamino]-6-oxo-5-oxa-7-azaspiro[3.4]octan-7-yl]-4H-pyrazino[2,3-b][1,4]oxazin-3-one]
14 | 1 µg/mL (≈ 1.86 µM) | CNCc1nc2cc3c(c(F)c2o1)CC(CN1CCC2(CC1)CN(c1ccc4c(n1)NC(=O)CO4)C(=O)O2)C3 (single isomer, unassigned) [Example 136, 6-[8-[[8-Fluoro-2-(methylaminomethyl)-6,7-dihydro-5H-cyclopenta[f][1,3]benzoxazol-6-yl]methyl]-2-oxo-1-oxa-3,8-diazaspiro[4.5]decan-3-yl]-4H-pyrido[3,2-b][1,4]oxazin-3-one]
15 | 0.25 µg/mL (≈ 0.431 µM) | COCCNCc1nc2c(F)c3c(cc2[nH]1)CC(CN1CCC2(CC1)CN(c1cnc4c(n1)NC(=O)CO4)C(=O)O2)C3 (stereo not drawn) [Example 70, 6-[8-[[8-fluoro-2-[(2-methoxyethylamino)methyl]-3,5,6,7-tetrahydrocyclopenta[f]benzimidazol-6-yl]methyl]-2-oxo-1-oxa-3,8-diazaspiro[4.5]decan-3-yl]-4H-pyrazino[2,3-b][1,4]oxazin-3-one]
16 | 0.25 µg/mL (≈ 0.408 µM) | CN(C)[C@H](CO)Cc1nc2c(F)c3c(c(F)c2[nH]1)CC(CN1CCC2(CC1)CN(c1cnc4c(n1)NC(=O)CO4)C(=O)O2)C3 [Example 63, 6-[8-[[2-[(2S)-2-(Dimethylamino)-3-hydroxy-propyl]-4,8-difluoro-3,5,6,7-tetrahydrocyclopenta[f]benzimidazol-6-yl]methyl]-2-oxo-1-oxa-3,8-diazaspiro[4.5]decan-3-yl]-4H-pyrazino[2,3-b][1,4]oxazin-3-one]
17 | 0.5 µg/mL (≈ 0.863 µM) | O=C1COc2ncc(N3CC4(CCN(CC5Cc6cc7nc(CN8CC(O)C8)oc7c(F)c6C5)CC4)OC3=O)nc2N1 (single isomer, unassigned) [Example 98, 6-[8-[[8-fluoro-2-[(3-hydroxyazetidin-1-yl)methyl]-6,7-dihydro-5H-cyclopenta[f][1,3]benzoxazol-6-yl]methyl]-2-oxo-1-oxa-3,8-diazaspiro[4.5]decan-3-yl]-4H-pyrazino[2,3-b][1,4]oxazin-3-one]

Same assay, conditions: strain Escherichia coli ATCC 25922, 18-24 hours at 35±2° C., lowest concentration for complete growth inhibition (no visible growth)

Row | Escherichia coli growth inhibition MIC | SMILES
18 | 0.25 µg/mL | CNCc1nc2cc3c(c(F)c2o1)CC(CN1CCC2(CC1)CN(c1cnc4c(n1)NC(=O)CO4)C(=O)O2)C3 (single isomer, unassigned) [Example 94, 6-[8-[[8-fluoro-2-(methylaminomethyl)-6,7-dihydro-5H-cyclopenta[f][1,3]benzoxazol-6-yl]methyl]-2-keto-1-oxa-3,8-diazaspiro[4.5]decan-3-yl]-4H-pyrazino[2,3-b][1,4]oxazin-3-one]
19 | 1 µg/mL | CN(CCn1nnc2c(F)c3c(c(F)c21)CC(CN1CCC2(CC1)CN(c1cnc4c(n1)NC(=O)CO4)C(=O)O2)C3)C(=O)CN (single isomer, unassigned) [Example 167, 2-Amino-N-methyl-N-[2-[4,8-difluoro-6-[[2-oxo-3-(3-oxo-4H-pyrazino[2,3-b][1,4]oxazin-6-yl)-1-oxa-3,8-diazaspiro[4.5]decan-8-yl]methyl]-6,7-dihydro-5H-cyclopenta[f]benzotriazol-1-yl]ethyl]acetamide]
20 | 0.25 µg/mL | CNCCn1cnc2c(F)c3c(c(F)c21)CC(CN1CCC2(CC1)CN(c1cnc4c(n1)NC(=O)CO4)C(=O)O2)C3 (single isomer, unassigned) [Example 127]

Same assay, conditions: strain Escherichia coli ATCC 25922, 18-24 hours at 35±2° C., lowest concentration for complete growth inhibition (no visible growth), dihydrochloride

Row | SMILES | Escherichia coli growth inhibition MIC
21 | NCCn1nc2cc3c(c(F)c2n1)CC(CN1CCC2(CC1)CN(c1cnc4c(n1)NC(=O)CO4)C(=O)O2)C3 (single isomer, unassigned) [Example 134, 6-[2-oxo-8-[[2-(2-aminoethyl)-8-fluoro-6,7-dihydro-5H-cyclopenta[f]benzotriazol-6-yl]methyl]-1-oxa-3,8-diazaspiro[4.5]decan-3-yl]-4H-pyrazino[2,3-b][1,4]oxazin-3-one dihydrochloride] | 0.125 µg/mL
